Values after ≈ are worked out from the molar mass of the structure shown. Values joined by “and” are separate entries in the source; they are usually repeats but may differ in a detail not shown here. Identical values can stand only once. Like-named read-outs stand apart in the source and are kept apart here.
Columns and labels:
B. subtilis PY79 = assay: Minimum inhibitory concentration; type: cell-based; conditions: Bacillus subtilis
PBP1a/1b = PBP1a/1b (Bacillus subtilis, UniProt P39793); assay: Fluorescent whole cell β-lactam titration with Boc-FL readout, SDS-PAGE; type: cell-based
Chain of PBP1a/1b (P39793 77-662): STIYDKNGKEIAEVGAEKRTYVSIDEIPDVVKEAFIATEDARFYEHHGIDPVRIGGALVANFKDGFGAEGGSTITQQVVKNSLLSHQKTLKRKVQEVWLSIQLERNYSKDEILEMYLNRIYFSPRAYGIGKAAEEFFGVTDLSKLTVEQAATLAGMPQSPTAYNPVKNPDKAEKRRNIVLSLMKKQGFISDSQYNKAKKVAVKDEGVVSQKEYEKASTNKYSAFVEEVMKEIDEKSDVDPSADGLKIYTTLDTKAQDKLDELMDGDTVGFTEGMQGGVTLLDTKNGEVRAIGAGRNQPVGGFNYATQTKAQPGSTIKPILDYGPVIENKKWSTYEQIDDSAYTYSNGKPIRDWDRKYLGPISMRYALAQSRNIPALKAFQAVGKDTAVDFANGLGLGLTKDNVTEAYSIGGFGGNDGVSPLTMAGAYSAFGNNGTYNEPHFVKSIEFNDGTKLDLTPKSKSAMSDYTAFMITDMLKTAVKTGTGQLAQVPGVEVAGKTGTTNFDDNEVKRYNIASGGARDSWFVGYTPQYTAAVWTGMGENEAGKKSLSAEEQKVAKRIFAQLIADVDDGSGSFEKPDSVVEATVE

PBP2a = PBP2a (Bacillus subtilis, UniProt P54488); assay: as above; type: cell-based
Chain of PBP2a (P54488 whole entry): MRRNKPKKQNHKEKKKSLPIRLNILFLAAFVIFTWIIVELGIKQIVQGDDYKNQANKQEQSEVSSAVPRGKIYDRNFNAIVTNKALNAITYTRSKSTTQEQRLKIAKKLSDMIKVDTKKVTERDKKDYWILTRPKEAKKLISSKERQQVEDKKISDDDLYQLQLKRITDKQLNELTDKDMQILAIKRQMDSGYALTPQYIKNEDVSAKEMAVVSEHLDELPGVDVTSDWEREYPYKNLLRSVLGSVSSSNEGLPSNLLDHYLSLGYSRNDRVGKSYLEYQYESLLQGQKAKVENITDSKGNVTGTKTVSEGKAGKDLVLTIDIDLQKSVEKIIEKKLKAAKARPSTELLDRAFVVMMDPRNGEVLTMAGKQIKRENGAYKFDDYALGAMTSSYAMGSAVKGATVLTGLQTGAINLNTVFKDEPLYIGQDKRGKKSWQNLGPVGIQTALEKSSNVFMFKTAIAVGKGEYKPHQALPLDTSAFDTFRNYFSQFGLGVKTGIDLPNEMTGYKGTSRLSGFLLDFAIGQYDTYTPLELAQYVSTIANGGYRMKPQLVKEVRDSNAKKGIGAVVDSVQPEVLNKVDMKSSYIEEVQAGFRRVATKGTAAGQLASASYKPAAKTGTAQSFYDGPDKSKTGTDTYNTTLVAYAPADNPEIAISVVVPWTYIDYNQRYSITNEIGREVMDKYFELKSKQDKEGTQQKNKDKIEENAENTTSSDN

PBP2b/H = PBP2b/H (Bacillus subtilis, UniProt Q07868); assay: as above; type: cell-based; conditions: for inhibition of PBP2b at MIC: at growth inhibitory concentration, substantial inhibition (>50%) not the case
Chain of PBP2b/H (Q07868 whole entry): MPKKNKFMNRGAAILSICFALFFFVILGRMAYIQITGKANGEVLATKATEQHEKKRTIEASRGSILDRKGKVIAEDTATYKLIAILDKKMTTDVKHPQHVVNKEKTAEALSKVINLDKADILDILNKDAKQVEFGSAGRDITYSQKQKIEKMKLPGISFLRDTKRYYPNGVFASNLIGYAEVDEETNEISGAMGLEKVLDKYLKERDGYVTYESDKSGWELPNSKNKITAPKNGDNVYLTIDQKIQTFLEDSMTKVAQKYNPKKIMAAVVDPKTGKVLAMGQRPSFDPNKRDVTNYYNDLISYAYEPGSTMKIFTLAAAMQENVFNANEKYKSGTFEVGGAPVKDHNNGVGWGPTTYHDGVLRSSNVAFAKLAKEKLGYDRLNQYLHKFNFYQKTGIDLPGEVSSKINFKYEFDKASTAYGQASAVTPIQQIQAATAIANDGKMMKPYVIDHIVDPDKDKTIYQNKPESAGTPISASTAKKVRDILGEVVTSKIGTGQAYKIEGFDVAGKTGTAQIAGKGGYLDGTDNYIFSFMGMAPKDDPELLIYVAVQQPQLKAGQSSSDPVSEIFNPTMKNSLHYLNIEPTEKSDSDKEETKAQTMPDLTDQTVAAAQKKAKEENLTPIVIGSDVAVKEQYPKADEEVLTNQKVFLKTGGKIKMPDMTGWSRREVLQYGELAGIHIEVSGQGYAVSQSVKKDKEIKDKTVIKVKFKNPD

PBP3 [1] = target: T1, PBP3 (Bacillus subtilis, UniProt P42971); assay: as above; type: cell-based
T1 sequence (P42971 whole entry): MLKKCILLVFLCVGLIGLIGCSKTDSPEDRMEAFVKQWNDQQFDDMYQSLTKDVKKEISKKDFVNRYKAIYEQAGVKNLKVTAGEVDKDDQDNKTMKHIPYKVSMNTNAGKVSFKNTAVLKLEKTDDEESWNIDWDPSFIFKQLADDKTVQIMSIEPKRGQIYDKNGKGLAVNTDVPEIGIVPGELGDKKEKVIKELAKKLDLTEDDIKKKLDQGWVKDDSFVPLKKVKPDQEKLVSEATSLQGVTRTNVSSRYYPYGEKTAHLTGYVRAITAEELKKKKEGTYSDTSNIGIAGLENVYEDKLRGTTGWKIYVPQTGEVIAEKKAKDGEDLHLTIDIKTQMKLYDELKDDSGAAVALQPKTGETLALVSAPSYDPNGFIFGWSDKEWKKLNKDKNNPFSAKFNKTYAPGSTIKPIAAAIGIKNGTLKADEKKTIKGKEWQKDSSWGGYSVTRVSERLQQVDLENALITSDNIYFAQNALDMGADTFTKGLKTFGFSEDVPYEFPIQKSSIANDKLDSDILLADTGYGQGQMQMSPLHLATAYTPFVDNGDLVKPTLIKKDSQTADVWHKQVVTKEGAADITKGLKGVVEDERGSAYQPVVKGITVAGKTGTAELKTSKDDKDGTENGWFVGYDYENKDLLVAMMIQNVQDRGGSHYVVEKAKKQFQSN

PBP4 = PBP4 (Bacillus subtilis, UniProt P40750); assay: as above; type: cell-based
Chain of PBP4 (P40750 22-624): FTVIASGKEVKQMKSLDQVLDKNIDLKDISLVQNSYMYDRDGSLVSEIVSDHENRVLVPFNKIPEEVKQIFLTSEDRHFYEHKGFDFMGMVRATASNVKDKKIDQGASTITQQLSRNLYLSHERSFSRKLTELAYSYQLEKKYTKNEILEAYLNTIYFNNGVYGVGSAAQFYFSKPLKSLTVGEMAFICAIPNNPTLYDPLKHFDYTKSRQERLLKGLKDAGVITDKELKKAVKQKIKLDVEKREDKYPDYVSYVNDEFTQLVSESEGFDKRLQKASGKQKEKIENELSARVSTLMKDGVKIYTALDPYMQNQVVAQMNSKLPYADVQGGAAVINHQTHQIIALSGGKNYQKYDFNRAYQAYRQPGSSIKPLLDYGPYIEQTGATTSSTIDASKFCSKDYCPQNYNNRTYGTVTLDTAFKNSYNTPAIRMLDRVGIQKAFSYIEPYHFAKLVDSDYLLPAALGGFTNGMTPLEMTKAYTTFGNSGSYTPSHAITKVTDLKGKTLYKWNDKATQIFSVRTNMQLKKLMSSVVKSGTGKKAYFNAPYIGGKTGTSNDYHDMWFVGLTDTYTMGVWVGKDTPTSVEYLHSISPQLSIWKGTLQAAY

PBP5 = PBP5 (Bacillus subtilis, UniProt P08750); assay: as above; type: cell-based
Chain of PBP5 (P08750 32-443): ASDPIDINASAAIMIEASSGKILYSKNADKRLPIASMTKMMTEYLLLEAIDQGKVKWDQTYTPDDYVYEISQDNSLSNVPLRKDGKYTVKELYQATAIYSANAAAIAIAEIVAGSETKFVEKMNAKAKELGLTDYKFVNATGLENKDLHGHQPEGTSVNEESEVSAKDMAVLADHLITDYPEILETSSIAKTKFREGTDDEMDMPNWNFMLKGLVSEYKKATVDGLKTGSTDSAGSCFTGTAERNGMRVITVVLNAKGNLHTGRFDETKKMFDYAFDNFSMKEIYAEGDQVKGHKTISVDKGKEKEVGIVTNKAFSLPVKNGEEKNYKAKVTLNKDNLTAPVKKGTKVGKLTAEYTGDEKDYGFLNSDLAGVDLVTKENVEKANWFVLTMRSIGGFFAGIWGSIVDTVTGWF

B. subtilis PBPs [2] = assay: PBP inhibition/selectivity profile across all detected PBPs; type: cell-based, Bacillus subtilis; conditions: at MIC
B. subtilis PBPs [3] = assay: β-Lactam titration of DK694; type: cell-based, Bacillus subtilis; conditions: DK694 (ΔpbpH) cells
B. subtilis PBPs [4] = assay: PBP activity profile after growth with sub-MIC meropenem; type: cell-based, Bacillus subtilis; conditions: 0.01 μg/mL, 2 h
PBP3 [5] = target: T1, PBP3; assay: Fluorescence imaging of PBP3 activity with MEM-BODIPY FL in live DK654; type: cell-based; conditions: pretreatment 10 μg/mL
[6] = IC50 PBP3, B. subtilis PY79 whole cells, average of two experiments
[7] = read-out: IC50 PBP2a, B. subtilis PY79 whole cells, average of two experiments

Structure (SMILES) | MIC (B. subtilis PY79) [µg/mL] | IC50 (PBP1a/1b) [µM] | IC50 (PBP2a) [µM] | IC50 (PBP2b/H) [µM] | inhibition of PBP2b at MIC (PBP2b/H) [%] | IC50 (PBP3 [1]; read-out: IC50 PBP3, B. subtilis PY79 whole cells, average of two experiments) [µM] | IC50 (PBP4) [µM] | IC50 (PBP5) [µM] | IC50 (PBP3 [1]; [6]) [µM] | PBP inhibition at growth inhibitory concentrations (B. subtilis PBPs [2]) | IC50 values for individual PBPs in DK694 (ΔpbpH) versus wild type (B. subtilis PBPs [3]) | IC50 (PBP2a; [7]) [µM] | IC50 (PBP3 [1]; 50% inhibition of PBP3, concentration in μM, corresponding to 0.26 μg/mL) [µM] | concentration for complete inhibition of PBP3 (PBP3 [1]; B. subtilis whole cells) | concentration for complete inhibition of PBP3 (PBP3 [1]; corresponding to 1 μg/mL) [µM] | concentration for selective and complete inhibition of PBP5 (PBP5; B. subtilis whole cells) | concentration for selective and complete inhibition of PBP5 (PBP5; corresponding to ~1 μg/mL) [µM] | PBP inhibition after growth with sub-MIC concentration (B. subtilis PBPs [4]) | MEM-BODIPY FL fluorescent signal upon pretreatment of the cells (PBP3 [5])
Cc1onc(-c2ccccc2Cl)c1C(=O)N[C@@H]1C(=O)N2[C@@H]1SC(C)(C)[C@@H]2C(=O)O [cloxacillin] | 0.125 (≈ 0.287 µM) | > 2290 | 0.206 | 0.298 | ≤ 50 | < 2290 | 0.0505 | > 2290 | – | – | – | – | – | – | – | – | – | – | –
C[C@H]1[C@H](NC(=O)/C(=N\OC(C)(C)C(=O)O)c2csc(N)n2)C(=O)N1S(=O)(=O)O [aztreonam] | 16 (≈ 36.7 µM) | – | – | – | ≤ 50 | – | – | – | – | – | – | – | – | – | – | – | – | – | –
CC1(C)S[C@@H]2[C@H](N)C(=O)N2[C@H]1C(=O)O [6-APA, 6-Aminopenicillanic acid] | 8 to 256 (≈ 37 to 1180 µM) | > 4620 | 511 | > 4620 | ≤ 50 | – | > 4620 | 19 | > 4620 | failed to significantly block any PBPs | – | – | – | – | – | – | – | – | –
CC1(C)S[C@@H]2[C@H](NC(=O)[C@H](N)c3ccccc3)C(=O)N2[C@H]1C(=O)O [ampicillin] | 8 (≈ 22.9 µM) | < 0.0286 | 0.0103 | 0.0269 | – | – | 0.0106 | 0.343 | 0.12 | – | comparable and within twofold in most cases | – | – | – | – | – | – | – | –
CCN1CCN(C(=O)N[C@@H](C(=O)N[C@@H]2C(=O)N3[C@@H]2SC(C)(C)[C@@H]3C(=O)O)c2ccccc2)C(=O)C1=O [piperacillin] | 64 (≈ 124 µM) | 0.00232 | 0.309 | < 1.93 | – | – | 0.058 | 21.8 | 3.67 | – | – | – | – | – | – | – | – | – | –
CC1=C(C(=O)O)N2C(=O)[C@@H](NC(=O)[C@H](N)c3ccccc3)[C@H]2SC1 [cephalexin] | 0.5 (≈ 1.44 µM) | > 2880 | < 0.288 | < 0.288 | – | – | 732 | > 2880 | 69.4 | – | – | – | – | – | – | – | – | – | –
C[C@@H](O)[C@H]1C(=O)N2C(C(=O)O)=C(S[C@@H]3CN[C@H](CNS(N)(=O)=O)C3)[C@H](C)[C@H]12 [doripenem] | 0.0625 (≈ 0.149 µM) | > 2380 | – | – | – | – | > 2380 | 0.547 | 0.285 | – | – | < 2380 | – | – | – | – | – | – | –
C[C@@H](O)[C@H]1C(=O)N2C(C(=O)O)=C([C@H]3CCCO3)S[C@H]12 [faropenem] | 0.125 (≈ 0.438 µM) | 0.00207 | 0.0386 | 0.0179 | – | – | 0.0315 | 0.701 | 3.29 | – | – | – | – | – | – | – | – | – | –
CO[C@@]1(NC(=O)Cc2cccs2)C(=O)N2C(C(=O)O)=C(COC(N)=O)CS[C@@H]21 [cefoxitin] | 1 (≈ 2.34 µM) | 0.0328 | 1.68 | 0.444 | – | – | 0.0328 | 0.444 | 2.43 | – | – | – | – | – | – | – | – | – | –
COc1cccc(OC)c1C(=O)N[C@@H]1C(=O)N2[C@@H]1SC(C)(C)[C@@H]2C(=O)O [methicillin] | 0.25 (≈ 0.657 µM) | > 2630 | < 0.0263 | < 0.263 | – | – | 0.289 | 391 | 23.7 | – | comparable and within twofold in most cases | – | – | – | – | – | – | – | –
CC1(C)S[C@@H]2[C@H](NC(=O)COc3ccccc3)C(=O)N2[C@H]1C(=O)O [penicillin V] | 32 (≈ 91.3 µM) | < 0.0285 | 0.0012 | < 0.0285 | – | – | < 0.0285 | 1.77 | 5.82 | – | – | – | – | – | – | – | – | – | –
CC1(C)S[C@@H]2[C@H](NC(=O)[C@H](N)c3ccc(O)cc3)C(=O)N2[C@H]1C(=O)O [amoxicillin] | 4 (≈ 10.9 µM) | 0.00274 | 0.203 | 0.241 | – | – | 0.208 | 3.04 | 0.383 | – | – | – | – | – | – | – | – | – | –
NC(=O)c1cc[n+](CC2=C(C(=O)O)N3C(=O)[C@@H](NC(=O)[C@@H](c4ccccc4)S(=O)(=O)[O-])[C@H]3SC2)cc1 [cefsulodin] | 8 (≈ 15 µM) | 0.0184 | 71.4 | 1.24 | – | – | 0.225 | > 1880 | 260 | – | – | – | – | – | – | – | – | – | –
C[C@@H](O)[C@H]1C(=O)N2C(C(=O)O)=C(S[C@@H]3CN[C@H](C(=O)N(C)C)C3)[C@H](C)[C@H]12 [meropenem] | 0.0625 (≈ 0.163 µM) | > 2610 | – | – | ≤ 50 | – | ≥ 2610 | 0.574 | 0.678 | – | – | < 2610 | 0.67 | ~ 1 μg/mL and 1 μg/mL | 2.6 | ~ 1 μg/mL | 2.6 | No significant inhibition | significantly reduced
CC1(C)S[C@@H]2[C@H](/N=C/N3CCCCCC3)C(=O)N2[C@H]1C(=O)O [mecillinam] | 16 (≈ 49.2 µM) | > 3070 | 20.6 | 3.29 | – | – | > 3070 | > 3070 | 275 | – | – | – | – | – | – | – | – | – | –
Cc1onc(-c2ccccc2)c1C(=O)N[C@@H]1C(=O)N2[C@@H]1SC(C)(C)[C@@H]2C(=O)O [oxacillin] | 0.25 (≈ 0.623 µM) | > 2490 | 0.139 | 0.152 | ≤ 50 | – | < 0.249 | > 2490 | 166 | – | – | – | – | – | – | – | – | – | –
CC(=O)OCC1=C(C(=O)O)N2C(=O)[C@@H](NC(=O)Cc3cccs3)[C@H]2SC1 [cephalothin] | 0.0312 (≈ 0.0788 µM) | 0.00656 | 0.0164 | 0.0192 | – | – | 0.0151 | 273 | 29.8 | – | – | – | – | – | – | – | – | – | –
CO/N=C(\C(=O)N[C@@H]1C(=O)N2C(C(=O)O)=C(CSc3nc(=O)c(=O)[nH]n3C)CS[C@H]12)c1csc(N)n1 [ceftriaxone] | 0.25 (≈ 0.451 µM) | 0.0135 | 29.4 | 0.119 | – | – | 0.0361 | > 1800 | 4.69 | – | – | – | – | – | – | – | – | – | –
CC1(C)S[C@@H]2[C@H](NC(=O)Cc3ccccc3)C(=O)N2[C@H]1C(=O)O [penicillin G] | 16 (≈ 47.8 µM) | > 2990 | 0.0129 | 0.0568 | – | – | 0.0269 | – | 4.19 | – | – | – | – | – | – | – | – | – | –
CO/N=C(\C(=O)N[C@@H]1C(=O)N2C(C(=O)O)=C(COC(C)=O)CS[C@H]12)c1csc(N)n1 [cefotaxime] | 0.0625 (≈ 0.137 µM) | 0.00285 | – | < 0.22 | – | – | < 0.22 | > 2200 | 2.17 | – | – | < 220 | – | – | – | – | – | – | –
CO/N=C(\C(=O)N[C@@H]1C(=O)N2C(C(=O)O)=C(COC(N)=O)CS[C@H]12)c1ccco1 [cefuroxime] | 0.125 (≈ 0.295 µM) | 0.00424 | 65.7 | 0.189 | – | – | 0.0353 | > 2360 | 52.3 | – | – | – | – | – | – | – | – | – | –
